Legend:
[1] = test system: six solid tumour cell lines; assay: CCK-8 cytotoxicity, summary over six cell lines; type: cell-based; details: read-out: IC50 values in these cell lines
[2] = test system: MDA-MB-468, MDA-MB-231, SK-OV-3 and OVCAR-5 cells; assay: cell cycle assay; type: cell-based, human; details: 48 h, quarter, half of IC50 and IC50
4T1-Fluc tumour = assay: 4T1-Fluc BALB/c homograft mouse model; type: in vivo; details: daily oral; vorinostat, abemaciclib 60 mg/kg

CCN1CCN(Cc2ccc(Nc3ncc(F)c(-c4cc(F)c5nc(C)n(C(C)C)c5c4)n3)nc2)CC1 [Abemaciclib]
IC50 [1]: > 1000 nM
cell cycle distribution (G1-phase arrest) [2]: did not induce G1 to S phase arrest
tumour volume (4T1-Fluc tumour): decreased only slightly

O=C(CCCCCCC(=O)Nc1ccccc1)NO [Vorinostat]
cell cycle distribution (G1-phase arrest) [2]: did not induce G1 to S phase arrest
tumour volume (4T1-Fluc tumour): barely impacted

From PMC6217055 (Theranostics, 2018)
